Results published in US11661426B2, “Imidazole-containing inhibitors of ALK2 kinase” (BioCryst Pharmaceuticals, Inc., priority 2017, dated 2023).

Target: ALK2 (Homo sapiens (Human), UniProt Q04771)
Test: ALK2 inhibition, LanthaScreen Eu Kinase Binding Assay (ThermoFisher Scientific / Life Technologies)
Conditions: read-out: Measured Ki (IC50) Value for Compounds: IC50
Description: Biochemical assays to measure the inhibitory effects of the compounds were performed by ThermoFisher Scientific (Life Technologies). ALK2 inhibition was tested using LanthaScreen™ Eu Kinase Binding Assay screening protocol.

Sequence of ALK2 (Q04771 21-509): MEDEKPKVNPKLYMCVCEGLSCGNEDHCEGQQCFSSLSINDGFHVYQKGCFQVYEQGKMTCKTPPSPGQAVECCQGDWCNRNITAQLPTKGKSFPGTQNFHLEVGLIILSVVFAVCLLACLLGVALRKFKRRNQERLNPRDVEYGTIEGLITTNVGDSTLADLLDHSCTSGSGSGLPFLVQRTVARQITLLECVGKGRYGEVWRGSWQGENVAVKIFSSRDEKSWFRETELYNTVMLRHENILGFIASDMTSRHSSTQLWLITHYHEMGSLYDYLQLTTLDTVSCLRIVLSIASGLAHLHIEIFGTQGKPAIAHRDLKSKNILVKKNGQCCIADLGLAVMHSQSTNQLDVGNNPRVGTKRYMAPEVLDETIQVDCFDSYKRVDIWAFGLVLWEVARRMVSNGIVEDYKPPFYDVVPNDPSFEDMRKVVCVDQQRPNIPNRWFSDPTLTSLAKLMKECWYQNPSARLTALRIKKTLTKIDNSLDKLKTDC

**Q.** With COc1cc(-n2cnc(Nc3nc(N4CCC[C@H]4C(N)=O)nc4cc(CN5CCCCC5)oc34)c2)cc(OC)c1OC [Compound 315f, (S)-1-(6-(piperidin-1-ylmethyl)-4-((1-(3,4,5-trimethoxyphenyl)-1H-imidazol-4-yl)amino)furo[3,2-d]pyrimidin-2-yl)pyrrolidine-2-carboxamide] as the compound, how does the IC50 read?
**A.** < 100 nM

**Q.** Which IC50 does the source give for COc1cc(-n2cnc(Nc3nc(N4CCC[C@H]4CO)nc4cnn(C)c34)c2)cc(OC)c1OC [Compound 316a, (S)-(1-(1-methyl-7-((1-(3,4,5-trimethoxyphenyl)-1H-imidazol-4-yl)amino)-1H-pyrazolo[4,3-d]pyrimidin-5-yl)pyrrolidin-2-yl)methanol] here?
**A.** 100 to 1000 nM

**Q.** For COc1cc(-n2cnc(Nc3nc(N4CCC[C@@H]4CO)nc4scnc34)c2)cc(OC)c1OC [Compound 317a, (R)-(1-(7-((1-(3,4,5-trimethoxyphenyl)-1H-imidazol-4-yl)amino)thiazolo[5,4-d]pyrimidin-5-yl)pyrrolidin-2-yl)methanol], which IC50 is on record?
**A.** < 100 nM

**Q.** Which IC50 does the source give for COc1cc(-n2cnc(Nc3nc(N4CCC[C@@H]4C(N)=O)nc4scnc34)c2)cc(OC)c1OC [Compound 318a, (R)-1-(7-((1-(3,4,5-trimethoxyphenyl)-1H-imidazol-4-yl)amino)thiazolo[5,4-d]pyrimidin-5-yl)pyrrolidine-2-carboxamide] here?
**A.** < 100 nM

**Q.** With CCOc1ccc(-n2cnc(Nc3nc(N4CCC[C@H]4CO)nn4cccc34)c2)cc1OCC [Compound 319b, (S)-(1-(4-((1-(3,4-diethoxyphenyl)-1H-imidazol-4-yl)amino)pyrrolo[2,1-f][1,2,4]triazin-2-yl)pyrrolidin-2-yl)methanol] as the compound, how does the IC50 read?
**A.** 100 to 1000 nM

**Q.** With COc1ccc(-n2cnc(Nc3nc(N4CCC[C@H]4CO)nn4cccc34)c2)cc1C(F)(F)F [Compound 320b, (S)-(1-(4-((1-(4-methoxy-3-(trifluoromethyl)phenyl)-1H-imidazol-4-yl)amino)pyrrolo[2,1-f][1,2,4]triazin-2-yl)pyrrolidin-2-yl)methanol] as the compound, how does the IC50 read?
**A.** < 100 nM

**Q.** With COc1cncc(-n2cnc(Nc3nc(N4CCC[C@H]4CO)nn4cccc34)c2)c1 [Compound 321b, (S)-(1-(4-((1-(5-methoxypyridin-3-yl)-1H-imidazol-4-yl)amino)pyrrolo[2,1-f][1,2,4]triazin-2-yl)pyrrolidin-2-yl)methanol] as the compound, how does the IC50 read?
**A.** < 100 nM

**Q.** With COc1cc(Cl)cc(-n2cnc(Nc3nc(N4CCC[C@H]4CO)nn4cccc34)c2)c1 [Compound 322b, (S)-(1-(4-((1-(3-chloro-5-methoxyphenyl)-1H-imidazol-4-yl)amino)pyrrolo[2,1-f][1,2,4]triazin-2-yl)pyrrolidin-2-yl)methanol] as the compound, how does the IC50 read?
**A.** < 100 nM

**Q.** How did the IC50 turn out when COc1cc(-n2cnc(Nc3nc(N4C[C@@H]5C[C@@H]5[C@@H]4CO)c4cccn4n3)c2)cc(OC)c1OC [Compound 324b, ((1S,2R,5R)-3-(2-((1-(3,4,5-trimethoxyphenyl)-1H-imidazol-4-yl)amino)pyrrolo[2,1-f][1,2,4]triazin-4-yl)-3-azabicyclo[3.1.0]hexan-2-yl)methanol] was run?
**A.** 100 to 1000 nM

**Q.** With COc1cc(-n2cnc(Nc3nc(N4[C@H](CO)C[C@H]5C[C@H]54)c4cccn4n3)c2)cc(OC)c1OC [Compound 325e, ((1R,3S,5R)-2-(2-((1-(3,4,5-trimethoxyphenyl)-1H-imidazol-4-yl)amino)pyrrolo[2,1-f][1,2,4]triazin-4-yl)-2-azabicyclo[3.1.0]hexan-3-yl)methanol] as the compound, how does the IC50 read?
**A.** < 100 nM

**Q.** With COc1cc(-n2cnc(Nc3nc(N4CCC[C@H]4CO)nc4c3cnn4C3CCCCO3)c2)cc(OC)c1OC (stereo partly drawn) [Compound 326c, ((2S)-1-(1-(tetrahydro-2H-pyran-2-yl)-4-((1-(3,4,5-trimethoxyphenyl)-1H-imidazol-4-yl)amino)-1H-pyrazolo[3,4-d]pyrimidin-6-yl)pyrrolidin-2-yl)methanol] as the compound, how does the IC50 read?
**A.** < 100 nM

**Q.** With COc1cc(-n2cnc(Nc3nc(N4CCC[C@@H]4CO)c4ccccc4n3)c2)cc(OC)c1OC [Compound 327b, (R)-(1-(2-((1-(3,4,5-trimethoxyphenyl)-1H-imidazol-4-yl)amino)quinazolin-4-yl)pyrrolidin-2-yl)methanol] as the compound, how does the IC50 read?
**A.** < 100 nM

**Q.** Which IC50 does the source give for COc1cc(-n2cnc(Nc3nc(N4CCC[C@H]4CO)c4c(cnn4C)n3)c2)cc(OC)c1OC [Compound 328c, (S)-(1-(1-methyl-5-((1-(3,4,5-trimethoxyphenyl)-1H-imidazol-4-yl)amino)-1H-pyrazolo[4,3-d]pyrimidin-7-yl)pyrrolidin-2-yl)methanol] here?
**A.** < 100 nM

**Q.** COc1cc(-n2cnc(Nc3nc(N4CCC[C@H]4CO)nc4[nH]ncc34)c2)cc(OC)c1OC [Compound 329a, (S)-(1-(4-((1-(3,4,5-trimethoxyphenyl)-1H-imidazol-4-yl)amino)-1H-pyrazolo[3,4-d]pyrimidin-6-yl)pyrrolidin-2-yl)methanol] was tested. Which IC50 did it give?
**A.** < 100 nM

**Q.** For OC[C@@H]1CCCN1c1nc(Nc2cn(-c3cccc(OC(F)(F)F)c3)cn2)c2cccn2n1 [Compound 330b, (S)-(1-(4-((1-(3-(trifluoromethoxy)phenyl)-1H-imidazol-4-yl)amino)pyrrolo[2,1-f][1,2,4]triazin-2-yl)pyrrolidin-2-yl)methanol], which IC50 is on record?
**A.** < 100 nM

**Q.** For Cc1cc(OC(F)(F)F)cc(-n2cnc(Nc3nc(N4CCC[C@H]4CO)nn4cccc34)c2)c1 [Compound 331b, (S)-(1-(4-((1-(3-methyl-5-(trifluoromethoxy)phenyl)-1H-imidazol-4-yl)amino)pyrrolo[2,1-f][1,2,4]triazin-2-yl)pyrrolidin-2-yl)methanol], which IC50 is on record?
**A.** < 100 nM

**Q.** With COc1cc(-n2cnc(Nc3nc(N4C[C@@H]5C[C@@H]5[C@H]4CO)c4cccn4n3)c2)cc(OC)c1OC [Compound 332b, ((1S,2S,5R)-3-(2-((1-(3,4,5-trimethoxyphenyl)-1H-imidazol-4-yl)amino)pyrrolo[2,1-f][1,2,4]triazin-4-yl)-3-azabicyclo[3.1.0]hexan-2-yl)methanol] as the compound, how does the IC50 read?
**A.** < 100 nM

**Q.** With COc1cc(-n2cnc(Nc3nc(N4CC[C@H](CO)C4)c4cccn4n3)c2)cc(OC)c1OC [Compound 333b, (S)-(1-(2-((1-(3,4,5-trimethoxyphenyl)-1H-imidazol-4-yl)amino)pyrrolo[2,1-f][1,2,4]triazin-4-yl)pyrrolidin-3-yl)methanol] as the compound, how does the IC50 read?
**A.** < 100 nM

**Q.** Which IC50 does the source give for COc1cc(-n2cnc(Nc3nc(N4CCN(C)CC4)nn4cccc34)c2)cc(OC)c1OC [Compound 334a, 2-(4-methylpiperazin-1-yl)-N-(1-(3,4,5-trimethoxyphenyl)-1H-imidazol-4-yl)pyrrolo[2,1-f][1,2,4]triazin-4-amine] here?
**A.** < 100 nM

**Q.** Which IC50 does the source give for COc1cc(-n2cnc(Nc3nc(N4CCC[C@H]4CO)c4cccc(CN5CCCCC5)c4n3)c2)cc(OC)c1OC [Compound 335d, (S)-(1-(8-(piperidin-1-ylmethyl)-2-((1-(3,4,5-trimethoxyphenyl)-1H-imidazol-4-yl)amino)quinazolin-4-yl)pyrrolidin-2-yl)methanol] here?
**A.** < 100 nM

**Q.** For COc1cc(-n2cnc(Nc3nc(N4CCC[C@H]4CO)nc4c3cnn4C)c2)cc(OC)c1OC [Compound 336c, (S)-(1-(1-methyl-4-((1-(3,4,5-trimethoxyphenyl)-1H-imidazol-4-yl)amino)-1H-pyrazolo[3,4-d]pyrimidin-6-yl)pyrrolidin-2-yl)methanol], which IC50 is on record?
**A.** < 100 nM

**Q.** How did the IC50 turn out when COc1cc(-n2cnc(Nc3nc(N4CCC[C@H]4C(N)=O)nc4c3cnn4C)c2)cc(OC)c1OC [Compound 337a, (S)-1-(1-methyl-4-((1-(3,4,5-trimethoxyphenyl)-1H-imidazol-4-yl)amino)-1H-pyrazolo[3,4-d]pyrimidin-6-yl)pyrrolidine-2-carboxamide] was run?
**A.** < 100 nM

**Q.** With COc1cc(-n2cnc(Nc3nc(N4CCC[C@H]4CO)c4cnn(C)c4n3)c2)cc(OC)c1OC [Compound 338b, (S)-(1-(1-methyl-6-((1-(3,4,5-trimethoxyphenyl)-1H-imidazol-4-yl)amino)-1H-pyrazolo[3,4-d]pyrimidin-4-yl)pyrrolidin-2-yl)methanol] as the compound, how does the IC50 read?
**A.** < 100 nM

**Q.** How did the IC50 turn out when OC[C@@H]1CCCN1c1nc(Nc2cn(-c3ccc4c(c3)OC(F)(F)O4)cn2)c2occc2n1 [Compound 339e, (S)-(1-(4-(1-(2,2-difluorobenzo[d][1,3]dioxol-5-yl)-1H-imidazol-4-ylamino)furo[3,2-d]pyrimidin-2-yl)pyrrolidin-2-yl)methanol] was run?
**A.** 100 to 1000 nM

**Q.** Which IC50 does the source give for COc1cc(-n2cnc(Nc3nc(N4CCC[C@H]4C(N)=O)nc4cccc(F)c34)c2)cc(OC)c1OC [Compound 340c, (S)-1-(5-fluoro-4-((1-(3,4,5-trimethoxyphenyl)-1H-imidazol-4-yl)amino)quinazolin-2-yl)pyrrolidine-2-carboxamide] here?
**A.** 100 to 1000 nM

**Q.** How did the IC50 turn out when COc1cc(-n2cnc(Nc3nc(N4CCC[C@H]4CO)nc4cccc(F)c34)c2)cc(OC)c1OC [Compound 341a, (S)-(1-(5-fluoro-4-((1-(3,4,5-trimethoxyphenyl)-1H-imidazol-4-yl)amino)quinazolin-2-yl)pyrrolidin-2-yl)methanol] was run?
**A.** < 100 nM

**Q.** Which IC50 does the source give for COc1cc(-n2cnc(Nc3nc(N4CCC[C@H]4CO)nc4c3COCC4)c2)cc(OC)c1OC [Compound 342c, (S)-(1-(4-((1-(3,4,5-trimethoxyphenyl)-1H-imidazol-4-yl)amino)-7,8-dihydro-5H-pyrano[4,3-d]pyrimidin-2-yl)pyrrolidin-2-yl)methanol] here?
**A.** < 100 nM

**Q.** How did the IC50 turn out when COc1cc(-n2cnc(Nc3nc4c(c(N5CCC[C@H]5CO)n3)COCC4)c2)cc(OC)c1OC [Compound 343b, (S)-(1-(2-((1-(3,4,5-trimethoxyphenyl)-1H-imidazol-4-yl)amino)-7,8-dihydro-5H-pyrano[4,3-d]pyrimidin-4-yl)pyrrolidin-2-yl)methanol] was run?
**A.** < 100 nM

**Q.** With COc1cc(-n2cnc(Nc3nc(N4CCC[C@H]4CO)nc4cc(Br)ccc34)c2)cc(OC)c1OC [Compound 344c, (S)-(1-(7-bromo-4-((1-(3,4,5-trimethoxyphenyl)-1H-imidazol-4-yl)amino)quinazolin-2-yl)pyrrolidin-2-yl)methanol] as the compound, how does the IC50 read?
**A.** < 100 nM

**Q.** Which IC50 does the source give for COc1cc(-n2cnc(Nc3nc(N4CCC[C@H]4C(N)=O)nc4cc(C#N)ccc34)c2)cc(OC)c1OC [Compound 345c, (S)-1-(7-cyano-4-((1-(3,4,5-trimethoxyphenyl)-1H-imidazol-4-yl)amino)quinazolin-2-yl)pyrrolidine-2-carboxamide] here?
**A.** < 100 nM
